PubChem BioAssay (NCI)
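Five compound concentrations were applied to cells in 96-well plates for 48 hours; endpoints were derived by simple linear interpolation of the resulting dose-response curve. TGI is the concentration that stops growth completely.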

Tested on: P388/ADR leukemia
Test: NCI tumour cell line growth inhibition, 48 h

With `O=C1NC2(CCCCC2)C(=O)N1CCN(CCCl)CCCl` the TGI was 234 µM.
